Our source for the inhibition, IC50 and Ki values is ChEMBL document CHEMBL3727366, “Heterocyclic compounds for the treatment of stress-related conditions” (2013).

Assay [1] has as its system Rattus norvegicus. Description: Inhibition of tail-pinch stress-induced feeding behavior in Wistar rat at 5 mL/kg, po dosed 1 or 2 hrs before tail-pinch stimulus. Type of assay: functional, organism-based.
For assay [2], the target named is T1, Prolactin-releasing peptide receptor (Homo sapiens, UniProt P49683).
T1 sequence (P49683 whole entry): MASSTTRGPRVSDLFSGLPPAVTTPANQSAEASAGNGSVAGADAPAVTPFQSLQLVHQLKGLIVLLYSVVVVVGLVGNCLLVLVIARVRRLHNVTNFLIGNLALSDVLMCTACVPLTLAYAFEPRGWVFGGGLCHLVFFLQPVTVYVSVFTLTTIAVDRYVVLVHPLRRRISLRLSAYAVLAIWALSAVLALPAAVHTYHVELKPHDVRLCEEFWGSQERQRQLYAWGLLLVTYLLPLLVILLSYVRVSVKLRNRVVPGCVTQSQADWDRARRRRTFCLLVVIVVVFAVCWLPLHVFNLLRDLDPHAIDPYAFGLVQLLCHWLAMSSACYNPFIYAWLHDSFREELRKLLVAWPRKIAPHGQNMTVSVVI
Description: Antagonist activity against human GPR10 receptor expressed in HEK293 cells assessed as inhibition of PrRP-induced intracellular calcium mobilization pre-incubated for 15 mins before PrRP addition by Fluo-8 dye based fluorescence imaging plate reader method. The class given is functional, cell-based.

The subject of assay [3] is Rattus norvegicus. In words: Inhibition of restraint stress-induced defecation in Wistar rat at 5 mL/kg, po dosed 1 or 2 hrs before restraint stress. The class given is functional, organism-based.
Assay [4] has as its target T1, Prolactin-releasing peptide receptor. In words: Displacement of [3H]-PrRP from human GPR10 receptor expressed in HEK293 cell membranes incubated for 90 mins by liquid scintillation counting method.

SMILES strings stand for the structures. The source made the active and inactive calls. How the calls were made is not given here.

Turning to `CCOn1c(N[C@@H](C)c2ccc(C(F)(F)F)cc2)nc2c(c1=O)CN(C(=O)c1ccc(C#N)cc1F)CC2`, the inhibition result in the assay on Rattus norvegicus [1] and in the assay on Rattus norvegicus [3] was “Active” in each case. The IC50 in assay [2] stood at 227 nM. The Ki in assay [4] worked out at 5 nM.
For the molecule `C[C@H](Nc1nc2c(c(=O)n1N1CCCC1)CN(C(=O)c1ccc(C#N)cc1F)CC2)c1ccc(C(F)(F)F)cc1`, the inhibition result in the assay on Rattus norvegicus [1] and in the assay on Rattus norvegicus [3] was “Active” each time. Besides, the IC50 in assay [2] is 298 nM. Besides, the affinity in assay [4] corresponds to a Ki of 6 nM.
Take `COn1c(N[C@@H](C)c2ccc(C(F)(F)F)cc2)nc2c(c1=O)CN(C(=O)c1ccc(Cl)o1)CC2`: the inhibition entry with Rattus norvegicus [1] and in the assay with Rattus norvegicus [3] was “Active” each time. This molecule yielded a Ki in assay [4] of 48 nM.
Take `COn1c(N[C@@H](C)c2ccc(C(F)(F)F)cc2)nc2c(c1=O)CN(C(=O)COc1ccc(C#N)cc1)CC2`: the inhibition result in the assay with Rattus norvegicus [1] and in the assay on Rattus norvegicus [3] was “Active” each time. Besides, in assay [4], the inhibitory constant (Ki) turned out to be 6 nM.
On to `COn1c(N[C@@H](C)c2ccc(C(F)(F)F)cc2)nc2c(c1=O)CN(C(=O)c1ccc(Cl)s1)CC2`, for which the inhibition entry in the assay on Rattus norvegicus [1] and in the assay on Rattus norvegicus [3] was “Active” each time. The concentration for half-maximal inhibition (IC50) in assay [2] was found to be 8790 nM. In addition, the affinity in assay [4] corresponds to a Ki of 15 nM.
Consider `COn1c(N[C@@H](C)c2ccc(C(F)(F)F)cc2)nc2c(c1=O)CN(C(=O)c1cc(-c3cccs3)n(C)n1)CC2`, for which the inhibition result with Rattus norvegicus [1] and in the assay on Rattus norvegicus [3] was “Active” each time. Also, the inhibitory constant (Ki) in assay [4] was determined as 20 nM.
For `COn1c(N[C@@H](C)C2CCCCC2)nc2c(c1=O)CN(C(=O)c1ccc(Cl)cc1)CC2`, the inhibition entry with Rattus norvegicus [1] and with Rattus norvegicus [3] was “Active” throughout. In assay [4], the affinity, expressed as Ki, was 108 nM.
Turning to `COn1c(N[C@H](c2ccc(Cl)cc2)C(C)C)nc2c(c1=O)CN(C(=O)c1ccc3c(c1)CCC(=O)N3C)CC2`, the inhibition entry with Rattus norvegicus [1] and with Rattus norvegicus [3] was “Active” each time. In assay [4], this molecule had a Ki of 24 nM.
On to `CC[C@H](Nc1nc2c(c(=O)n1OC)CN(C(=O)c1ccc(C#N)cc1F)CC2)c1ccc(C(F)(F)F)cc1`, for which the inhibition result in the assay on Rattus norvegicus [1] and in the assay on Rattus norvegicus [3] was “Active” in each case. This molecule showed an inhibition constant (Ki) in assay [4] of 8 nM.
As for `COn1c(N[C@@H](C)c2ccc(C(F)(F)F)cc2)nc2c(c1=O)CN(C(=O)c1cc3cccnc3s1)CC2`, the inhibition result with Rattus norvegicus [1] and with Rattus norvegicus [3] was “Active” each time. In assay [4], this molecule had a Ki of 9 nM.
In the case of `C[C@H](Nc1nc2c(c(=O)n1N1CCCC1)CN(C(=O)c1ccc(C#N)cc1)CC2)c1ccc(C(F)(F)F)cc1`, the inhibition entry in the assay with Rattus norvegicus [1] and with Rattus norvegicus [3] was “Active” in each case. Further, the half-inhibitory concentration (IC50) in assay [2] was found to be 648 nM. Moreover, the inhibitory constant (Ki) in assay [4] stood at 10 nM.
Take `COn1c(N[C@@H](C)c2ccc(C(F)(F)F)cc2)nc2c(c1=O)CN(C(=O)/C=C/c1ccc(Cl)cc1)CC2`: the inhibition entry in the assay with Rattus norvegicus [1] and in the assay with Rattus norvegicus [3] was “Active” each time. For the same molecule, the IC50 in assay [2] amounted to 5790 nM. In assay [4], this molecule registered a Ki of 12 nM.
With `COn1c(N[C@@H](C)c2ccc(C(F)(F)F)cc2)nc2c(c1=O)CN(C(=O)c1cc3occc3n1C)CC2`, the inhibition entry in the assay on Rattus norvegicus [1] and in the assay with Rattus norvegicus [3] was “Active” each time. Moreover, in assay [4], the Ki turned out to be 10 nM.
Take `CCOn1c(N[C@@H](C)c2ccc(C(F)(F)F)cc2)nc2c(c1=O)CN(C(=O)c1ccc(-c3cnco3)cc1)CC2`: the inhibition entry with Rattus norvegicus [1] and in the assay with Rattus norvegicus [3] was “Active” each time. In assay [2], the half-maximal inhibitory concentration (IC50) turned out to be 158 nM. In assay [4], this molecule gave a Ki of 20 nM.
For `COn1c(N[C@@H](C)c2ccc(C(F)(F)F)cc2)nc2c(c1=O)CN(C(=O)CSc1ccc(Cl)cc1)CC2`, the inhibition result with Rattus norvegicus [1] and with Rattus norvegicus [3] was “Active” in each case. In addition, in assay [2], the 50% inhibitory concentration (IC50) worked out at 1140 nM. This molecule also came in with a Ki in assay [4] of 8 nM.
Consider `COn1c(NC(C)c2ccc(Cl)cc2)nc2c(c1=O)CN(C(=O)COc1ccc(Cl)cc1)CC2` (single isomer, unassigned), for which the inhibition entry in the assay with Rattus norvegicus [1] and in the assay with Rattus norvegicus [3] was “Active” throughout. Further, the IC50 in assay [2] worked out at 1180 nM. Besides, in assay [4], the Ki turned out to be 15 nM.
Turning to `CCOn1c(N[C@@H](C)c2ccc(C(F)(F)F)cc2)nc2c(c1=O)CN(C(=O)c1ccc(Cl)cc1)CC2`, the inhibition entry in the assay on Rattus norvegicus [1] and in the assay on Rattus norvegicus [3] was “Active” throughout. In assay [2], the concentration for half-maximal inhibition (IC50) was determined as 3710 nM. This molecule also yielded a Ki in assay [4] of 25 nM.
For the molecule `COn1c(N[C@@H](C)c2ccc(C(F)(F)F)cc2)nc2c(c1=O)CN(C(=O)c1ccc3c(c1)OCCO3)CC2`, the inhibition result with Rattus norvegicus [1] and with Rattus norvegicus [3] was “Active” each time. Also, the inhibition constant Ki in assay [4] amounted to 10 nM.
`COn1c(N[C@@H](C)c2ccc(C(F)(F)F)cc2)nc2c(c1=O)CN(C(=O)c1cc3ccccc3s1)CC2` came in with an inhibition constant (Ki) in assay [4] of 15 nM.
As to `COn1c(N[C@@H](C)c2ccc(C(F)(F)F)cc2)nc2c(c1=O)CN(C(=O)c1ccc(C)s1)CC2`, the inhibition entry in the assay on Rattus norvegicus [1] and with Rattus norvegicus [3] was “Active” each time. The IC50 in assay [2] amounted to 1130 nM. Also, in assay [4], the affinity, expressed as Ki, was 10 nM.
Turning to `COc1ccc2oc(C(=O)N3CCc4nc(N[C@@H](C)c5ccc(C(F)(F)F)cc5)n(OC)c(=O)c4C3)cc2c1`, the inhibition result in the assay on Rattus norvegicus [1] and in the assay with Rattus norvegicus [3] was “Active” each time. The molecule also came in with a Ki in assay [4] of 14 nM.
As to `CCOn1c(N[C@@H](C)c2ccc(C(F)(F)F)cc2)nc2c(c1=O)CN(C(=O)c1ccc(C#N)cc1)CC2`, the inhibition result with Rattus norvegicus [1] and with Rattus norvegicus [3] was “Active” each time. In addition, the half-maximal inhibitory concentration (IC50) in assay [2] came to 156 nM. In assay [4], this molecule yielded a Ki of 11 nM.
Turning to `COn1c(N[C@@H](C)c2ccc(C(F)(F)F)cc2)nc2c(c1=O)CN(C(=O)CCc1ccc(Cl)cc1)CC2`, the inhibition entry with Rattus norvegicus [1] and in the assay with Rattus norvegicus [3] was “Active” in each case. Further, the IC50 in assay [2] worked out at 3900 nM. The Ki in assay [4] was determined as 134 nM.
Take `COn1c(N[C@H](c2ccc(Cl)cc2)C(C)C)nc2c(c1=O)CN(C(=O)c1ccc3c(c1)OCCO3)CC2`: the inhibition entry in the assay on Rattus norvegicus [1] and with Rattus norvegicus [3] was “Active” each time. The molecule also yielded a Ki in assay [4] of 42 nM.
Regarding `C[C@H](Nc1nc2c(c(=O)n1N1CCOCC1)CN(C(=O)c1ccc(C#N)cc1F)CC2)c1ccc(C(F)(F)F)cc1`, the inhibition result with Rattus norvegicus [1] and in the assay on Rattus norvegicus [3] was “Active” in each case. In assay [2], the IC50 was determined as 187 nM. For the same molecule, in assay [4], the inhibition constant Ki came to 3 nM.
In the case of `COc1ccc(C(=O)N2CCc3nc(N[C@@H](C)c4ccc(C(F)(F)F)cc4)n(OC)c(=O)c3C2)c(OC)n1`, the inhibition result in the assay on Rattus norvegicus [1] and with Rattus norvegicus [3] was “Active” throughout. For the same molecule, the 50% inhibitory concentration (IC50) in assay [2] amounted to 228 nM. For the same molecule, in assay [4], the Ki came to 7 nM.
`CC(C)COn1c(N[C@@H](C)c2ccc(C(F)(F)F)cc2)nc2c(c1=O)CN(C(=O)c1ccc(C#N)cc1F)CC2`: the inhibition result in the assay with Rattus norvegicus [1] and in the assay with Rattus norvegicus [3] was “Active” in each case. Besides, in assay [4], the affinity corresponds to a Ki of 33 nM.
As to `COn1c(N[C@@H](C)c2ccc(C(F)(F)F)cc2)nc2c(c1=O)CN(C(=O)c1ccc(C)c(C)c1)CC2`, the inhibition result in the assay on Rattus norvegicus [1] and with Rattus norvegicus [3] was “Active” each time. Further, in assay [2], the half-maximal inhibitory concentration (IC50) turned out to be 1030 nM. Also, in assay [4], the affinity, expressed as Ki, was 4 nM.
On to `CCOn1c(N[C@@H](C)c2ccc(C(F)(F)F)cc2)nc2c(c1=O)CN(C(=O)c1cc3cccnc3s1)CC2`, for which the inhibition entry in the assay with Rattus norvegicus [1] and with Rattus norvegicus [3] was “Active” each time. Further, the IC50 in assay [2] was 1680 nM. Further, affinity in assay [4] was put at a Ki of 17 nM.
In the case of `COn1c(N[C@H](C)C2CCCCC2)nc2c(c1=O)CN(C(=O)c1ccc(C#N)cc1F)CC2`, the inhibition entry in the assay with Rattus norvegicus [1] and with Rattus norvegicus [3] was “Active” throughout. This molecule also had a Ki in assay [4] of 61 nM.
With `COn1c(N[C@H](c2ccc(Cl)cc2)C(C)C)nc2c(c1=O)CN(C(=O)c1cc3ccccc3cn1)CC2`, the inhibition result in the assay with Rattus norvegicus [1] and in the assay with Rattus norvegicus [3] was “Active” each time. In assay [4], this molecule had an inhibition constant Ki of 26 nM.
`COn1c(N[C@H](c2ccc(Cl)cc2)C(C)C)nc2c(c1=O)CN(C(=O)c1ccc(-n3ccnc3)cc1)CC2`: the inhibition result with Rattus norvegicus [1] and with Rattus norvegicus [3] was “Active” throughout. In assay [4], this molecule gave an inhibition constant (Ki) of 31 nM.
As to `COn1c(N[C@@H](C)c2ccc(C(F)(F)F)cc2)nc2c(c1=O)CN(C(=O)COc1ccc(Cl)cc1)CC2`, the inhibition entry in the assay on Rattus norvegicus [1] and with Rattus norvegicus [3] was “Active” each time. Moreover, the half-maximal inhibitory concentration (IC50) in assay [2] was 678 nM. The Ki in assay [4] was 8 nM.
For `COn1c(N[C@@H](C)C2CCCCC2)nc2c(c1=O)CN(C(=O)c1ccc(C#N)cc1F)CC2`, the inhibition entry in the assay with Rattus norvegicus [1] and in the assay with Rattus norvegicus [3] was “Active” each time. In addition, in assay [4], the affinity, expressed as Ki, was 56 nM.
With `COn1c(N[C@@H](C)c2ccc(C(F)(F)F)cc2)nc2c(c1=O)CN(C(=O)c1ccc(C)c(F)c1)CC2`, the inhibition result in the assay with Rattus norvegicus [1] and in the assay on Rattus norvegicus [3] was “Active” throughout. The affinity in assay [4] corresponds to a Ki of 8 nM.
Regarding `CC#CCn1c(N[C@@H](C)c2ccc(C(F)(F)F)cc2)nc2c(c1=O)CN(C(=O)c1ccc3ccccc3n1)CC2`, the inhibition result in the assay on Rattus norvegicus [1] and in the assay on Rattus norvegicus [3] was “Active” in each case.
For the molecule `COn1c(N[C@H](c2ccc(Cl)cc2)C(C)C)nc2c(c1=O)CN(C(=O)c1cc3ccccn3n1)CC2`, the inhibition result with Rattus norvegicus [1] and in the assay with Rattus norvegicus [3] was “Active” throughout. In addition, the Ki in assay [4] stood at 13 nM.
